The test system of series [1] is Oxonat rat. Description: Combined metabolic test in the Oxonat rat (Test 2 of Table 2): uric acid in urine and serum. In kind it is in vivo, male Wistar rats. Particulars: for Separation of uric acid in the urine, 1st day: 1st day (urine collected before administration, control value); for Separation of uric acid in the urine, 3rd day / Serum - uric acid, % of control / Serum - uric acid: 3rd day. The method, then:
(§1) In this test series, the uricase activity of the rats' livers is inhibited by the application of potassium oxonate (potassium salt of 2,4-dihydroxy-1,3,5-triazine-(6)-carboxylic acid) and thus a gout-like disorder of the purine metabolism is induced. The animals are tested in two different ways.
(§2) 18 hours before the start of the test, the animals were placed separately in metabolism cages. At the same time they were offered unlimited quantities of a 0.5% potassium oxonate solution to drink. On the 1st day of the test, first the urine samples collected were removed (control value) then the substances to be tested were administered in a 0.5% potassium oxonate solution by oesophageal tube into the stomach. The same operation was repeated on the 2nd day of the test. After removal of the 24 hour urine (1st sample after administration of the preparation) the test substances were administered a second time by oesophageal tube. On the 3rd day of the test, the animals were killed and bled, immediately after the urine samples from the preceding 24 hours had been collected (2nd sample after administration of the preparation). Both in the serum obtained and also in the urine samples, the concentration of uric acid was determined enzymatically, using the uricase method (Uricaquant, Boehringer Mannheim), together with a large number of metabolic parameters.
This test series differs from the diuresis test described in 1) only in the method of administration of the uricase inhibitor. The animals drink water throughout the test and are given the potassium oxonate in a special feed mixture consisting of normal standard rat food to which 5% fructose, 3% uric acid, 2% potassium oxonate and 0.1% sweetener have been added. The administration of the preparations to be tested and the analysis of the urine samples from the 1st, 2nd and 3rd days of the test and of the serum samples obtained on the 3rd day of the test were carried out as described in the diuresis test.

Series [2] is described as follows: Acute toxicity (LD50), oral by oesophageal tube. The note with it: rat, in vivo, rats, mortality within 7 days.
Series [3] relates to Oxonat rat. As to the kind of experiment: Diuresis test in the Oxonat rat (Test 1 of Table 2): uric acid in urine and serum. In kind it is in vivo, male Wistar rats. The note with it: 25 mg/kg oral, n=8, diuresis test (Test 1). On the procedure: The compounds may therefore be useful as therapeutic agents for various disorders of purine metabolism, particularly in treating primary and secondary gout.
as §1, §2

The mark [4] stands for this setting: 25 mg/kg oral, n=8, combined metabolic test (Test 2).
Setting [5] is: 25 mg/kg oral, n=8, combined metabolic test (Test 2), * p<0.05 (Duncan), control 8.64± 3.51.
Where [6] appears, read: 50 mg/kg oral, n=8, comparison preparation, own control group (Test 2).

Molecules are shown by their SMILES. A value given as a limit tells only on which side of the number the result lay.

As to `Cc1ccccc1-n1ccnc1Cc1nnn[nH]1` [Example 11, 1-(o-Tolyl)-2-(5-tetrazolylmethyl)-imidazole], in the series on Oxonat rat [1] (setting [4]), the “Separation of uric acid in the urine, 1st day” value (“Separation … 1st day” for short) stood at 1.12± 0.64; the “Separation of uric acid in the urine, 2nd day” value (shortened to “Separation … 2nd day”) is listed as 2.24± 0.57; the “Separation of uric acid in the urine, 3rd day” value (from here on “Separation … 3rd day”) came to 2.33± 1.70; the “Serum - uric acid, % of control” value is on record as -31%. Moreover, in the series on Oxonat rat [1] (setting [5]), the “Serum - uric acid” value is 6.00± 1.73 mg %.

Turning to `Oc1ncnc2[nH]ncc12` [Allopurinol, 1 H-Pyrazolo[3,4-]pyrimidine-4-ol, reference compound], the “Serum - uric acid” value in the series with Oxonat rat [1] (50 mg/kg oral, n=8, comparison preparation (Test 2), own control 6.70± 0.89) is recorded as 6.21± 0.76 mg %. Further, in the series on Oxonat rat [1] (setting [6]), the “Separation … 1st day” value came out at 0.99± 0.51; the “Separation … 2nd day” value came to 2.16± 0.81; the “Separation … 3rd day” value came out at 3.82± 1.59.

Take `Cn1ccnc1Cc1nnn[nH]1` [Example 1, 1-Methyl-2-(5-tetrazolylmethyl)-imidazole]: in the series with Oxonat rat [1] (setting [4]), the “Separation … 2nd day” value is on record as 3.30± 2.12; the “Separation … 3rd day” value was determined as 3.32± 1.94; the “Serum - uric acid, % of control” value is recorded as -44%. In addition, in the series with Oxonat rat [1] (setting [5]), the “Serum - uric acid” value was 4.83± 1.69 mg %. The median lethal dose (LD50) (in general, the dose at which mortality reaches 50%) at 168 h in series [2] was over 3150 mg/kg.

Regarding `c1ccc(Cn2ccnc2-c2nnn[nH]2)cc1` [Example 24, 1-Benzyl-2-(5-tetrazolyl)-imidazole], the “Separation … 1st day” value stood at 2.56± 1.14 in the series with Oxonat rat [3] (1st day (urine collected before administration, control value)) and 1.81± 0.61 in the series on Oxonat rat [1] (setting [4]). For the same compound, the results for the “Separation … 2nd day” value in the series on Oxonat rat [3] (2nd day) and in the series on Oxonat rat [1] (setting [4]) were 3.97± 1.44 and 2.04± 0.80, respectively. Besides, the “Separation … 3rd day” value in the series with Oxonat rat [3] (3rd day) was found to be 3.47± 1.31; in the series on Oxonat rat [1] (setting [4]), 2.51± 1.55. The “Serum - uric acid, % of control” value in the series on Oxonat rat [3] (3rd day) was -31%; in the series with Oxonat rat [1] (setting [4]), -30%. The “Serum - uric acid” value in the series with Oxonat rat [3] (3rd day, * p<0.05 (Duncan), control 3.50± 1.15) turned out to be 2.41± 0.98 mg %; in the series with Oxonat rat [1] (setting [5]), 6.07± 1.63 mg %. In series [2], the median lethal dose (LD50) at 168 h is over 4000 mg/kg.

`CC(C)n1ccnc1Cc1nn[nH]n1` [Example 3, 1-Isopropyl-2-(5-tetrazolymethyl)-imidazole]: in the series on Oxonat rat [1] (setting [4]), the “Separation … 1st day” value is recorded as 1.68± 0.51; the “Separation … 2nd day” value stood at 2.25± 0.41; the “Serum - uric acid, % of control” value is reported as -19%. For the same compound, the “Serum - uric acid” value in the series with Oxonat rat [1] (setting [5]) is on record as 6.97± 2.07 mg %.

With `c1ccc(Cn2ccnc2Cc2nn[nH]n2)cc1` [Example 5, 1-benzyl-2-(5-tetrazolymethyl)-imidazole], in the series with Oxonat rat [1] (setting [4]), the “Separation … 1st day” value came out at 1.78± 0.92; the “Separation … 2nd day” value came out at 2.76± 1.21; the “Separation … 3rd day” value came out at 2.28± 1.31; the “Serum - uric acid, % of control” value is -30%. Further, the “Serum - uric acid” value in the series on Oxonat rat [1] (setting [5]) came to 6.05± 1.96 mg %.

For the origin of these results see patent US4152440A, “Novel derivatives of imidazole, and pharmaceutical compositions containing them” (Hoechst Aktiengesellschaft, priority 1975, dated 1979).
